Series [1] in a line: Photo-stability of bulk solid. Format: physicochemical. The conditions noted are these: irradiated 1.2 million lux-hours, 40° C., 36 hours. The method, then:
The L-arginine salt formed via the above method was tested for thermal- and photo-stability. For comparative purposes, the free base and the ammonium salt were also tested.
The bulk ammonium and arginine salts and the bulk free base of the compound of formula (I) were tested for photo-stability by being irradiated (1.2 million lux-hours), at 40° C. for a period of 36 hours.

A short description of series [2]: Adsorption to aluminium hydroxide (RP-HPLC). The conditions noted are these: 1 mg/ml on 3 mg/ml aluminium hydroxide. Format: physicochemical. The method, then:
The adsorption efficiency of the compound was determined by RP-HPLC as being 99%.

A short description of series [3]: Adsorption to calcium phosphate adjuvant. Format: physicochemical. The conditions noted are these: pH 6.4, no histidine buffer, 1.12 mg/ml Ca2+. The method, then:
Adsorption of a L-arginine salt of the compound of formula (I) to a commercially-available calcium phosphate adjuvant was studied at pH 6.4, without histidine buffer. Two formulations are prepared, both with 1.12 mg/ml Ca^2+ but with either 0.25 mg/ml or 0.125 mg/ml of the arginine salt. Adsorption was around 90% for both formulations.

Series [4] has as its system respiratory syncytial virus (RSV). Description: Anti-RSV titers after immunisation with trimeric F glycoprotein. The format is in vivo, Balb/C mice. The conditions noted are these: 3 weeks after first dose; 1, 5, 50 μg SMIP adsorbed to Al—H, 3 μg F glycoprotein. Here is the method: Trimeric F glycoprotein (3 μg) of respiratory syncytial virus (RSV) is formulated with the compound of formula (I) as a free base or as the arginine salt (1 μg, 5 μg, 50 μg) adsorbed to Al—H. For comparison the IC31™ adjuvant is also tested. Balb/C mice (6 per group) are immunized at days 0 and 21 and immune responses are assessed.

A short description of series [5]: Dynamic vapour sorption (DVS) water sorption. The format is physicochemical. The conditions noted are these: 90% relative humidity. Here is the method:
Dynamic vapour sorption (DVS) experiments were conducted on the L-arginine salt obtained via the above method. […] The free base is also shown for comparison (●). DSC analysis of the arginine salt following DVS treatment was also conducted and the results pre- (♦) and post-DVS (▪) treatment are shown in FIG. 4. The free base is also shown for comparison (●). […] No form change is noted by the XRPD.

The nature of series [6]: Thermal-stability at physiological pH. Format: physicochemical. The conditions noted are these: for degradation (thermal-stability): physiological pH (7.4), 80° C., 7 days. Here is the method:
The L-arginine salt formed via the above method was tested for thermal- and photo-stability. For comparative purposes, the free base and the ammonium salt were also tested. The bulk ammonium and arginine salts and the bulk free base of the compound of formula (I) were also tested for thermal-stability at physiological pH (7.4) by heating at 80° C. for 7 days. […] This renders the ammonium salt unsuitable for use in pharmaceutical formulation and long term storage.

Series [7] can be described thus: Photo-stability in 50 mM phosphate buffer solution. The format is physicochemical. The conditions noted are these: 50 mM phosphate buffer pH 6.8; irradiated 1.2 million lux-hours, 40° C., 36 hours. Here is the method:
The L-arginine salt formed via the above method was tested for thermal- and photo-stability. For comparative purposes, the free base and the ammonium salt were also tested. The arginine salt and the bulk free base of the compound of formula (I) were also tested for photo-stability in a solution of 50 mM phosphate buffer (pH 6.8) by being irradiated (1.2 million lux-hours), at 40° C. for a period of 36 hours. […] The ammonium salt was not tested.

Series [8] in a line: Adsorption to aluminium phosphate adjuvant. The format is physicochemical. Here is the method:
Adsorption of a L-arginine salt of the compound of formula (I) to a commercially-available aluminium phosphate adjuvant yielded an adsorption efficiency of 97% (as found by recovering the compound of formula (I) on desorption). […] However, the adsorption remained >90% when the aluminium phosphate adjuvant was treated with 10 mM potassium phosphate.
One formulation was prepared with 0.4 mg/ml of the compound of formula (I) of the L-arginine salt and 3 mg/ml of aluminium phosphate (expressed as Al^3+ concentration), 10 mM of histidine buffer (pH 6.5). Aluminium phosphate was treated overnight with various concentrations of potassium phosphate (10 mM, 50 mM, 100 mM, 250 mM and 500 mM) before the compound of formula (I) of the arginine salt was incubated with the aluminium phosphate.

Series [9] is described as follows: Effect of Al—H adsorption on serum peak and injection-site residence. The conditions noted are these: adsorbed on Al—H versus non-adsorbed; mice and rats. The format is in vivo. The source says: Adsorption of the compound of formula (I) on Al—H reduced its peak serum concentrations and increased residence times at sites of intramuscular injection, as found for mice and rats preclinical species. This contributes greatly on modifying and controlling the level of systemic exposure avoiding the potential problem of proinflammatory cytokines in the blood, improving safety and/or tolerability of the compounds of formula (I).

A short description of the next series: in vivo. The conditions noted are these: mouse, im, 4 mg/kg. Here is the method:
A single dose of two different formulations (one containing the free base and the other the L-arginine salt of the compound of formula (I)) adsorbed to Al—H in 10 mM histidine buffer and in the presence of 3 MenB antigens were administered intramuscularly to mice at a dose of 4 mg/kg.

Structures are written as SMILES. Values joined by “and” are separate entries in the source; they are usually repeats but may differ in a detail not shown here. Equal values may be shown once. Where a name gives a salt, the structure may show the parent alone.

Take `Cc1cc(OCCOCCOCCP(=O)(O)O)ccc1CCc1cnc2c(N)nc3cc(CCC(=O)O)ccc3c2c1` [ammonium salt]: the “degradation (photo-stability)” value in [1] is 4.6%.
In [2], `Cc1cc(OCCOCCOCCP(=O)(O)O)ccc1CCc1cnc2c(N)nc3cc(CCC(=O)O)ccc3c2c1` [arginine salt, arginine salt of 3-(5-amino-2-(2-methyl-4-(2-(2-(2-phosphonoethoxyl)ethoxy)ethoxy)phenethyl)benzo[f][1,7]naphthyridin-8-yl)propanoic acid] registered an adsorption efficiency of 99%. Also, the Adsorption entry in series [3] (0.125 mg/ml arginine salt) and in series [3] (0.25 mg/ml arginine salt) was “around 90%” throughout. Besides, the “anti-RSV titers versus Al—H alone” value in [4] was “increased compared to Al—H alone”. Besides, the “anti-RSV titers, arginine salt versus free base” value in [4] is reported as “slightly higher titers than the free base”. In series [1], the “degradation (photo-stability)” value is reported as 9.7%. Moreover, the results for the “water taken on (DVS)” value in series [5] and in series [5] (4 g sample) were “approximately 18%” and “approximately 13.71%”, respectively. The “stability at high temperatures, compared with other form” value in series [6] (high temperatures (80° C.), as in autoclaving) was “more stable than the ammonium salt”. Besides, the “degradation (thermal-stability)” value in series [6] turned out to be 0.1%. Further, in series [7], the “degradation (photo-stability in solution)” value is on record as 9.8%. Besides, the “% Adsorption” value in series [8] (aluminium phosphate pre-treated with 10 mM potassium phosphate, listed as L-arginine salt) was 93 ± 1%; in series [8] (aluminium phosphate pre-treated with 50 mM potassium phosphate), 81.6 ± 0.1%; in series [8] (aluminium phosphate pre-treated with 100 mM potassium phosphate) it was 60 ± 2%; in [8] (aluminium phosphate pre-treated with 250 mM potassium phosphate) it was 52 ± 0.1%; in series [8] (aluminium phosphate pre-treated with 500 mM potassium phosphate), 65 ± 4%; in [8] (aluminium phosphate, no potassium phosphate pre-treatment (0 mM), 0.4 mg/ml compound, 3 mg/ml Al3+, 10 mM histidine pH 6.5, listed as L-arginine salt), 97% and 97 ± 1%.
One may read the AUC(0-t) as the area under the concentration-time curve up to a stated or last time point. A lower AUC(0-t) goes with less exposure. One may read the Cmax as the highest concentration seen after dosing. As a reminder, the Tmax is the time at which the peak concentration occurs. By half-life is commonly meant how long it takes for the measured level to halve. Take `Cc1cc(OCCOCCOCCP(=O)(O)O)ccc1CCc1cnc2c(N)nc3cc(CCC(=O)O)ccc3c2c1` [free base, 3-(5-amino-2-(2-methyl-4-(2-(2-(2-phosphonoethoxy)ethoxy)ethoxy)phenethyl)benzo[f][1,7]naphthyridin-8-yl)propanoic acid]: in series [9], the peak serum concentrations result is reported as “reduced” and the “residence times at sites of intramuscular injection” value is “increased”. Besides, in series [4], the “anti-RSV titers versus Al—H alone” value is given as “increased compared to Al—H alone”. Further, in [1], the “degradation (photo-stability)” value is listed as 12.36%. In “in vivo”, the AUC(0-t) is 4.54 µM·h, the Cmax was 453 nM, the Tmax was 0.67 h and the half-life is 8.48 h. Moreover, the “degradation (thermal-stability)” value in series [6] came to 18.1%. Further, the “degradation (photo-stability in solution)” value in series [7] was found to be 23.1%.

These data come from US9320748B2, “Immunologically useful arginine salts” (Novartis AG, priority 2012, dated 2016).
